The values below come from US7030162B2, “Treatment of migraine headache” (POZEN Inc., priority 1996, dated 2006).

Counter-ions that a name gives are not always drawn.

The conditions of data set [1]: human, in vivo.
Description: Twenty-four healthy volunteers (14 females and 10 males), aged 20–55 years, received each of the four treatments. […] Standard pharmacokinetic parameters were calculated, including maximum plasma concentrations over the entire sampling phase (Cmax), time to attain maximal plasma concentrations (Tmax), and area under the plasma concentration-time curve (AUCI-time 0 to infinity).
The conditions of data set [2]: naproxen sodium: water of neutral pH; cited from earlier work.
For a further data set, the system named is migraine patients. In words: Earlier phase II study of metoclopramide on pain variables. In kind it is in vivo, human.
The conditions of data set [3]: cited from earlier work; for time of peak plasma concentrations: after oral dosing, normal subjects; for half-life: pharmacokinetic half-life.

For the compound `CCN(CC)CCNC(=O)c1cc(Cl)c(N)cc1OC` [Metoclopramide hydrochloride, metoclopramide hydrochloride], the tolerability result in data set [1] is “well tolerated”. Also, the solubility in water entry in data set [2] is listed as “freely soluble”. Also, the “effect on pain variables” value in the data set on migraine patients was “without significant effect”.
For the compound `CC(=O)Nc1ccc(O)cc1` [acetaminophen], in data set [3], the “time of peak plasma concentrations” value is listed as “about 1 hour”.
In the case of `CC(=O)Oc1ccccc1C(=O)O` [aspirin], the “time of peak plasma concentrations” value in data set [3] is “about 1 hour”. For the same compound, in data set [3] (in vivo), the plasma half life result is “very short”.
`Cc1ccc(-c2cc(C(F)(F)F)nn2-c2ccc(S(N)(=O)=O)cc2)cc1` [celecoxib]: in data set [3] (in vivo), the “time to peak plasma levels” value was “approximately 3 hours”. The half-life (usually how long it takes for the measured level to halve) in data set [3] was “approximately 11 hours”.
`CCc1cccc2c3c([nH]c12)C(CC)(CC(=O)O)OCC3` (stereo not shown) [etodolac]: the half-life entry in data set [3] was “about 7 hours”.
On to `CC(C(=O)O)c1ccc(-c2ccccc2)c(F)c1` (stereo not shown) [flurbiprofen], for which, in data set [3], the half-life result was “about 6 hours”.
With `CC(C(=O)O)c1cccc(C(=O)c2ccccc2)c1` (stereo not shown) [ketoprofen], the “time to peak plasma levels” value in data set [3] (in vivo) is listed as “one-half to 2”.
As to `O=C(c1ccccc1)c1ccc2n1CCC2C(=O)O` (stereo not shown) [ketorolac], in data set [3], the half-life is 8 to 9 h.
Turning to `Cc1ccc(Cl)c(Nc2ccccc2C(=O)O)c1Cl` [meclofenamate], the “time to peak plasma levels” value in data set [3] (in vivo) was 0.5 to 1 h.
For the compound `Cc1cccc(Nc2ccccc2C(=O)O)c1C` [mefenamic acid], in data set [3], the half-life entry was “up to 4 hours”.
Consider `COc1ccc2cc([C@H](C)C(=O)O)ccc2c1` [naproxen], for which the tolerability entry in data set [1] was “well tolerated”.
On to `O=C(O)CCc1nc(-c2ccccc2)c(-c2ccccc2)o1` [oxaprozin], for which, in data set [3], the half-life was 42 to 50 h.
